Measurements as given in ChEMBL document CHEMBL4602729, “O-Alkyl Hydroxamates Display Potent and Selective Antileishmanial Activity” (J Med Chem, 2020).
Active and inactive are the calls of the source. The calls are words filed in the database; no cut-off is given here.

Legend:
Leishmania infantum [1] = experiment: Antileishmanial activity against Leishmania infantum MON-1 intracellular amastigotes infected in Swiss mouse BMDM measured after 48 hrs by Giemsa staining based optical microscopic analysis; assay type: functional, organism-based
Leishmania infantum [2] = experiment: Antileishmanial activity against Leishmania infantum MON-1 promastigotes assessed as reduction in parasite viability at 100 uM measured after 48 hrs by MTT assay; assay type: functional, organism-based
[3] = (§1) Cytotoxicity against Swiss mouse BMDM assessed as reduction in cell viability measured after 72 hrs by tryphan blue assay; assay type: cell-based; conditions: Swiss, BMDM
[4] = (§2) Cytotoxicity against mouse L929 cells assessed as reduction in cell viability measured after 72 hrs by tryphan blue assay; assay type: cell-based; conditions: L929 cells
Leishmania major = experiment: Antileishmanial activity against Leishmania major MON-4 intracellular amastigotes; assay type: functional, organism-based
[5] = Selectivity index, ratio of CC50 for mouse L929 cells to IC50 for Leishmania major MON-4 intracellular amastigotes; assay type: toxicity, cell-based
BMDM = experiment: as §1; assay type: cell-based; conditions: bmdm, 72 h
Leishmania donovani = experiment: Antileishmanial activity against Leishmania donovani MON-2 intracellular amastigotes; assay type: functional, organism-based
[6] = Selectivity index, ratio of CC50 for mouse L929 cells to IC50 for Leishmania infantum MON-1 intracellular amastigotes infected in Swiss mouse BMDM; assay type: toxicity, cell-based
L929 = experiment: as §2; assay type: cell-based; conditions: l929, 72 h
Leishmania tropica = experiment: Antileishmanial activity against Leishmania tropica MON-102 intracellular amastigotes; assay type: functional, organism-based
[7] = Selectivity index, ratio of CC50 for mouse L929 cells to IC50 for Leishmania tropica MON-102 intracellular amastigotes; assay type: toxicity, cell-based
[8] = Selectivity index, ratio of CC50 for mouse L929 cells to IC50 for Leishmania donovani MON-2 intracellular amastigotes; assay type: toxicity, cell-based
[9] = Toxicity in BALB/c mouse infected with Leishmania infantum MON-1 promastigotes assessed as change in AST level at 104 mg Sbv/kg, ip administered daily for 14 days starting from 28 days post infection using PLGA nanoparticle incorporated compound; assay type: organism-based; conditions: in vivo
Leishmania infantum [10] = experiment: (§3) Antileishmanial activity against Leishmania infantum MON-1 promastigotes infected in BALB/c mouse assessed as reduction in spleen parasite load at 104 mg Sbv/kg, ip administered daily for 14 days starting from 28 days post infection measured post last dose by Taqman qRT-PCR analysis relative to control; assay type: functional, organism-based; parameters: scale not given: the % may be the effect or the level left
Leishmania infantum [11] = experiment: as §3, with “liver” for “spleen”; assay type: functional, organism-based; parameters: scale not given: the % may be the effect or the level left
[12] = Leishmania infantum, MON-1, BMDM, 48 h

Which IC50 (Leishmania infantum [1]; [12]) does the source give for `O=C(CCCCCCC(=O)Nc1ccccc1)NOCc1ccccc1` here?
The IC50 was 0.44 µM.

And the Activity (Leishmania infantum [2])?
The Activity was “inactive”.

What about the CC50 at 72 h [3] of the same molecule?
Its CC50 at 72 h is greater than 100 µM.

And the CC50 at 72 h [4]?
Its CC50 at 72 h is greater than 100 µM.

With `COc1ccc(C(ONC(=O)CCCCCCC(=O)Nc2ccccc2)(c2ccccc2)c2ccc(OC)cc2)cc1` as the molecule, how does the CC50 at 72 h [3] read?
Its CC50 at 72 h is less than 1 µM.

What about the CC50 at 72 h [4] of the same molecule?
Its CC50 at 72 h is less than 1 µM.

Which IC50 (Leishmania infantum [1]; [12]) does the source give for `O=C(CCCCCCC(=O)Nc1ccccc1)NOC(c1ccccc1)(c1ccccc1)c1ccccc1Cl` here?
The IC50 was 74.9 µM.

And the CC50 at 72 h [3]?
The CC50 at 72 h was greater than 100 µM.

With `CCCCc1ccc(C(=O)NCC(=O)NOC(c2ccccc2)(c2ccccc2)c2ccccc2)cc1` as the molecule, how does the IC50 (Leishmania infantum [1]; [12]) read?
The IC50 was 1.05 µM.

What about the Activity (Leishmania infantum [2]) of the same molecule?
Its Activity is “inactive”.

And the CC50 at 72 h [3]?
Its CC50 at 72 h is greater than 100 µM.

What about the CC50 at 72 h [4] of the same molecule?
Its CC50 at 72 h is greater than 100 µM.

What does the source list for `O=C(CCCCCCN1C(=O)c2ccc(C#Cc3ccccc3)cc2S1(=O)=O)NOC(c1ccccc1)(c1ccccc1)c1ccccc1`?
IC50 (Leishmania infantum [1]; [12]): 3.67 µM; CC50 at 72 h [3]: > 100 µM

What does the source list for `Cc1ccc(C(ONC(=O)CCCCCCC(=O)Nc2ccccc2)(c2ccccc2)c2ccccc2)cc1`?
IC50 (Leishmania infantum [1]; [12]): 69.1 µM; CC50 at 72 h [3]: < 100 µM

What does the source list for “MEGLUMINE ANTIMONATE [listing 1 of 2 here]”?
IC50 (Leishmania major): 101 µM; Ratio CC50/IC50 [5]: 3; IC50 (Leishmania infantum [1]): 144 µM; CC50 (BMDM): 200 to 500 µM; IC50 (Leishmania donovani): 96.4 µM; Ratio CC50/IC50 [6]: 2; CC50 (L929): 273 µM; IC50 (Leishmania tropica): 123 µM; Ratio CC50/IC50 [7]: 2; Ratio CC50/IC50 [8]: 3; Activity [9]: Toxic

With `O=C(CCCCCCC(=O)Nc1ccccc1)NO` [VORINOSTAT] as the molecule, how does the CC50 at 72 h [3] read?
The CC50 at 72 h was 5 to 20 µM.

Which Activity (Leishmania infantum [10]) does the source give for “MEGLUMINE ANTIMONATE [listing 2 of 2 here]” here?
Its Activity is 33%.

What about the Activity (Leishmania infantum [11]) of the same molecule?
The Activity was 83%.

With `N=C(N)c1ccc(OCCCCCOc2ccc(C(=N)N)cc2)cc1` as the molecule, how does the IC50 (Leishmania major; Leishmania major, MON-4) read?
The IC50 was 0.96 µM.

And the selectivity ratio ([5]; read-out: Ratio CC50/IC50)?
The selectivity ratio was 6.

And the IC50 (Leishmania infantum [1]; [12])?
Its IC50 is 1.5 µM.

What about the CC50 at 72 h [3] of the same molecule?
The CC50 at 72 h was 5 to 20 µM.

And the IC50 (Leishmania donovani; Leishmania donovani, MON-2)?
The IC50 was 0.88 µM.

And the selectivity ratio ([6]; read-out: Ratio CC50/IC50)?
Its selectivity ratio is 4.

What about the IC50 (Leishmania tropica; Leishmania tropica, MON-102) of the same molecule?
The IC50 was 0.62 µM.

And the selectivity ratio ([7]; read-out: Ratio CC50/IC50)?
Its selectivity ratio is 10.

What about the selectivity ratio ([8]; read-out: Ratio CC50/IC50) of the same molecule?
The selectivity ratio was 7.
